# Key:
# Assay type in all cases: functional
# [1] = tested on: HL-60(TB); assay: Growth inhibition of human HL-60(TB) cells incubated for 48 hrs by sulforhodamine B assay
# [2] = tested on: MOLT-4; assay: Growth inhibition of human MOLT-4 cells incubated for 48 hrs by sulforhodamine B assay
# [3] = tested on: RPMI-8226; assay: Growth inhibition of human RPMI-8226 cells incubated for 48 hrs by sulforhodamine B assay
# [4] = tested on: SR; assay: Growth inhibition of human SR cells incubated for 48 hrs by sulforhodamine B assay
# [5] = tested on: A549; assay: Growth inhibition of human A549/ATCC cells incubated for 48 hrs by sulforhodamine B assay
# [6] = tested on: HOP-62; assay: Growth inhibition of human HOP-62 cells incubated for 48 hrs by sulforhodamine B assay
# [7] = tested on: NCI-H322M; assay: Growth inhibition of human NCI-H322M cells incubated for 48 hrs by sulforhodamine B assay
# [8] = tested on: NCI-H460; assay: Growth inhibition of human NCI-H460 cells incubated for 48 hrs by sulforhodamine B assay
# [9] = tested on: HCC 2998; assay: Growth inhibition of human HCC 2998 cells incubated for 48 hrs by sulforhodamine B assay
# [10] = tested on: HCT-116; assay: Growth inhibition of human HCT-116 cells incubated for 48 hrs by sulforhodamine B assay
# [11] = tested on: HT-29; assay: Growth inhibition of human HT-29 cells incubated for 48 hrs by sulforhodamine B assay
# [12] = tested on: KM12; assay: Growth inhibition of human KM12 cells incubated for 48 hrs by sulforhodamine B assay
# [13] = tested on: SW-620; assay: Growth inhibition of human SW-620 cells incubated for 48 hrs by sulforhodamine B assay
# [14] = tested on: SF-268; assay: Growth inhibition of human SF-268 cells incubated for 48 hrs by sulforhodamine B assay
# [15] = tested on: SNB-75; assay: Growth inhibition of human SNB-75 cells incubated for 48 hrs by sulforhodamine B assay
# [16] = tested on: U-251; assay: Growth inhibition of human U-251 cells incubated for 48 hrs by sulforhodamine B assay
# [17] = tested on: LOX IMVI; assay: Growth inhibition of human LOX IMVI cells incubated for 48 hrs by sulforhodamine B assay
# [18] = tested on: M14; assay: Growth inhibition of human M14 cells incubated for 48 hrs by sulforhodamine B assay
# [19] = tested on: SK-MEL-28; assay: Growth inhibition of human SK-MEL-28 cells incubated for 48 hrs by sulforhodamine B assay
# [20] = tested on: SK-MEL-5; assay: Growth inhibition of human SK-MEL-5 cells incubated for 48 hrs by sulforhodamine B assay
# [21] = tested on: UACC-257; assay: Growth inhibition of human UACC-257 cells incubated for 48 hrs by sulforhodamine B assay
# [22] = tested on: OVCAR-5; assay: Growth inhibition of human OVCAR-5 cells incubated for 48 hrs by sulforhodamine B assay
# [23] = tested on: NCI/ADR-RES; assay: Growth inhibition of human NCI/ADR-RES cells incubated for 48 hrs by sulforhodamine B assay
# [24] = tested on: SK-OV-3; assay: Growth inhibition of human SK-OV-3 cells incubated for 48 hrs by sulforhodamine B assay
# [25] = tested on: 786-0; assay: Growth inhibition of human 786-0 cells incubated for 48 hrs by sulforhodamine B assay
# [26] = tested on: ACHN; assay: Growth inhibition of human ACHN cells incubated for 48 hrs by sulforhodamine B assay
# [27] = tested on: RXF 393; assay: Growth inhibition of human RXF 393 cells incubated for 48 hrs by sulforhodamine B assay
# [28] = tested on: SN12C; assay: Growth inhibition of human SN12C cells incubated for 48 hrs by sulforhodamine B assay
# [29] = tested on: TK-10; assay: Growth inhibition of human TK-10 cells incubated for 48 hrs by sulforhodamine B assay
# [30] = tested on: UO-31; assay: Growth inhibition of human UO-31 cells incubated for 48 hrs by sulforhodamine B assay
# [31] = tested on: DU-145; assay: Growth inhibition of human DU-145 cells incubated for 48 hrs by sulforhodamine B assay
# [32] = tested on: MDA-MB-231; assay: Growth inhibition of human MDA-MB-231 cells incubated for 48 hrs by sulforhodamine B assay
# [33] = tested on: BT-549; assay: Growth inhibition of human BT-549 cells incubated for 48 hrs by sulforhodamine B assay
# [34] = tested on: T47D; assay: Growth inhibition of human T47D cells incubated for 48 hrs by sulforhodamine B assay
# [35] = tested on: MDA-MB-468; assay: Growth inhibition of human MDA-MB-468 cells incubated for 48 hrs by sulforhodamine B assay
# [36] = read-out: LC50 (the source's name)
structure (smiles),measurement,setting,value
O=C(CNc1ccc(Cl)cc1)Nc1ccc(-c2nc3ccccc3s2)cc1,GI50,[1],2.23 µM
same,TGI,[1],6.05 µM
same,CC50,[1]; [36],> 100 µM
same,GI50,[2],1.25 µM
same,LC50,[2],> 100 µM
same,TGI,[2],7.09 µM
same,GI50,[3],2.52 µM
same,LC50,[3],> 100 µM
same,TGI,[3],6.73 µM
same,GI50,[4],1.62 µM
same,LC50,[4],> 100 µM
same,TGI,[4],5.76 µM
same,GI50,[5],3.31 µM
same,TGI,[5],13.7 µM
same,CC50,[5]; [36],> 100 µM
same,GI50,[6],3.34 µM
same,TGI,[6],12.9 µM
same,CC50,[6]; [36],> 100 µM
same,GI50,[7],2 µM
same,LC50 (concentration killing 50% of cells),[7],12.3 µM
same,TGI,[7],4.65 µM
same,GI50,[8],3.73 µM
same,TGI,[8],13.1 µM
same,CC50,[8]; [36],39.8 µM
same,GI50,[9],1.9 µM
same,TGI,[9],3.54 µM
same,CC50,[9]; [36],6.58 µM
same,GI50,[10],1.84 µM
same,TGI,[10],3.91 µM
same,CC50,[10]; [36],8.3 µM
same,GI50,[11],1.96 µM
same,LC50,[11],8.17 µM
same,TGI,[11],4 µM
same,GI50,[12],3.24 µM
same,LC50 (concentration killing 50% of cells),[12],33.5 µM
same,TGI,[12],11.1 µM
same,GI50,[13],1.89 µM
same,LC50 (concentration killing 50% of cells),[13],8.08 µM
same,TGI,[13],3.9 µM
same,GI50,[14],2 µM
same,LC50,[14],15 µM
same,TGI,[14],4.76 µM
same,GI50,[15],2.65 µM
same,LC50 (concentration killing 50% of cells),[15],37.6 µM
same,TGI,[15],14.1 µM
same,GI50,[16],1.94 µM
same,LC50 (lethal concentration 50),[16],7.84 µM
same,TGI,[16],3.9 µM
same,GI50,[17],1.29 µM
same,LC50,[17],5.74 µM
same,TGI,[17],2.72 µM
same,GI50,[18],1.78 µM
same,TGI,[18],3.84 µM
same,CC50,[18]; [36],8.28 µM
same,GI50,[19],2.03 µM
same,LC50,[19],9.72 µM
same,TGI,[19],4.44 µM
same,GI50,[20],1.57 µM
same,LC50 (50% lethal concentration),[20],6.53 µM
same,TGI,[20],3.2 µM
same,GI50,[21],3.12 µM
same,LC50,[21],57.7 µM
same,TGI,[21],11.1 µM
same,GI50,[22],2.26 µM
same,LC50 (concentration killing 50% of cells),[22],23.9 µM
same,TGI,[22],5.8 µM
same,GI50,[23],3.03 µM
same,LC50,[23],> 100 µM
same,TGI,[23],8.5 µM
same,GI50,[24],4.57 µM
same,LC50 (concentration killing 50% of cells),[24],> 100 µM
same,TGI,[24],61.8 µM
same,GI50,[25],1.85 µM
same,LC50 (50% lethal concentration),[25],9 µM
same,TGI,[25],4.08 µM
same,GI50,[26],2.31 µM
same,LC50,[26],18.2 µM
same,TGI,[26],5.57 µM
same,GI50,[27],1.66 µM
same,LC50 (concentration killing 50% of cells),[27],7.68 µM
same,TGI,[27],3.57 µM
same,GI50,[28],2.74 µM
same,LC50,[28],73.4 µM
same,TGI,[28],8.49 µM
same,GI50,[29],2.2 µM
same,LC50,[29],21.5 µM
same,TGI,[29],5.84 µM
same,GI50,[30],1.96 µM
same,LC50 (concentration killing 50% of cells),[30],40.3 µM
same,TGI,[30],9.79 µM
same,GI50,[31],3.34 µM
same,LC50 (concentration killing 50% of cells),[31],32.1 µM
same,TGI,[31],10.3 µM
same,GI50,[32],2.86 µM
same,LC50 (concentration causing 50% cell kill),[32],> 100 µM
same,TGI,[32],10.3 µM
same,GI50,[33],1.57 µM
same,LC50 (concentration killing 50% of cells),[33],9.1 µM
same,TGI,[33],3.78 µM
same,GI50,[34],1.86 µM
same,LC50 (concentration killing 50% of cells),[34],> 100 µM
same,TGI,[34],5.94 µM
same,GI50,[35],0.0238 µM
same,TGI,[35],0.353 µM
same,CC50,[35]; [36],6.19 µM

# Source: ChEMBL document CHEMBL4765227, “Hit to lead optimization of a series of N-[4-(1,3-benzothiazol-2-yl)phenyl]acetamides as monoacylglycerol lipase inhibitors with potential anticancer activity” (Eur J Med Chem, 2016)
